From a compilation of properties of binary mixtures (doi:10.1016/j.molliq.2018.05.059)

Test: xn = mol fraction of the nth substance listed
Details: 298 K, 101 kPa

CC(=O)[O-].CCC[N+]1(C)CCN(C)CC1 + CC#N
Details | electrical conductivity [S/m]
x2 = 0.806 | 1.82
x2 = 0.819 | 1.89
x2 = 0.832 | 1.95
x2 = 0.843 | 1.98
x2 = 0.852 | 1.98
x2 = 0.859 | 2.04
x2 = 0.874 | 2.01
x2 = 0.884 | 2.04
x2 = 0.895 | 2.06
x2 = 0.902 | 2.06
x2 = 0.919 | 2.04
x2 = 0.931 | 2.01
x2 = 0.937 | 1.94
x2 = 0.95 | 1.85

CC(O)C(=O)[O-].CCC[N+]1(C)CCN(C)CC1 + CC#N
Details | electrical conductivity [S/m]
x2 = 0.808 | 1.52
x2 = 0.835 | 1.72
x2 = 0.856 | 1.83
x2 = 0.872 | 1.91
x2 = 0.89 | 1.99
x2 = 0.898 | 1.99
x2 = 0.907 | 2.04
x2 = 0.918 | 2.05
x2 = 0.927 | 2.05
x2 = 0.939 | 2.01
x2 = 0.945 | 1.96
